Measurements taken from PMC10802846 (Cell chemical biology, 2023).
Entries after “also recorded” stand apart in the source; their conditions may differ. Read-outs that look alike come from different tables or passages of the source. Residues, ends and D or L forms follow the SMILES beside them. *: point of attachment. Cbz = O=C(OCc1ccccc1)*

Key:
[1] = tested on: BC cell lines; experiment: Colony formation assays, comparison across several BC cell lines; format: cell-based, human; details: alone or in combination
[2] = tested on: HDAC1/3/8; experiment: HDAC1/3/8 inhibitory activity in vitro, statements across the three isozymes; format: biochemical; details: for HDAC1/3/8 inhibitory potency and selectivity: warhead analogues
[3] = biological target: T1, HDAC8 (Homo sapiens, UniProt Q9BY41); experiment: HDAC8 degradation by Western blot in MDA-MB-231 cells; format: cell-based
T1 sequence (Q9BY41 1-377): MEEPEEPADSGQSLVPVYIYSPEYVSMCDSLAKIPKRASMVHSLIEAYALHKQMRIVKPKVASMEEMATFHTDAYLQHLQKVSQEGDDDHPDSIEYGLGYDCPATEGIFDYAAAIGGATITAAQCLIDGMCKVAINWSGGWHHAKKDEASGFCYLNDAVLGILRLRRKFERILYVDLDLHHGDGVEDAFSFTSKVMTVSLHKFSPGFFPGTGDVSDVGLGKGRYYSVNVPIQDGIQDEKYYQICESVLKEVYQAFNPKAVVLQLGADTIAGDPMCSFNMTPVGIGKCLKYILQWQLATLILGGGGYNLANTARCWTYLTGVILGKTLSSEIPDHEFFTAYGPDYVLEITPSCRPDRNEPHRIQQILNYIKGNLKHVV

[4] = biological target: T2, HDAC1 (Homo sapiens, UniProt Q13547); experiment: HDAC activity assay; format: biochemical
[5] = biological target: T2, HDAC1; experiment: HDAC1 protein level by Western blot in MCF7 and MDA-MB-231 cells; format: cell-based
[6] = biological target: HDAC2 (Homo sapiens, UniProt Q92769); experiment: HDAC2 protein level by Western blot in MCF7 and MDA-MB-231 cells; format: cell-based
[7] = biological target: HDAC1 and the VHL complex (Homo sapiens, UniProt Q13547); experiment: AlphaLISA ternary complex formation, HDAC1; format: binding; details: broad range of YX968 concentrations
[8] = tested on: MDA-MB-231 cells; experiment: RNA-seq differential gene expression; format: cell-based, human; details: for number of downregulated genes / number of upregulated genes: 24 h, fold-change≥|2|, p ≤ 0.01
[9] = tested on: acetylated core histones (H3K27ac, H2BK5ac, and H4K8ac); experiment: Histone acetylation by Western blot; format: cell-based, human
[10] = tested on: acetylated SMC3; experiment: Acetylated SMC3 by Western blot in MDA-MB-231 cells; format: cell-based, human; details: YX968 16 nM, 14 h
[11] = tested on: cell cycle progression; experiment: Cell cycle profiling; format: cell-based; details: 24 h
[12] = tested on: MCF7; experiment: Colony formation assay, MCF7; format: cell-based, human
[13] = tested on: T47D; experiment: Colony formation assay, T47D; format: cell-based, human
[14] = tested on: BT549; experiment: Colony formation assay, BT549; format: cell-based, human
[15] = tested on: MDA-MB-468; experiment: Colony formation assay, MDA-MB-468; format: cell-based, human
[16] = tested on: HCC1806; experiment: Colony formation assay, HCC1806; format: cell-based, human
[17] = tested on: MDA-MB-231; experiment: Colony formation assay, MDA-MB-231; format: cell-based, human
[18] = tested on: H1299; experiment: Colony formation assay, H1299; format: cell-based, human
[19] = tested on: caspase 3 (CASP3); experiment: CASP3 cleavage; format: cell-based, human; details: MDA-MB-231, 16 h
[20] = tested on: p21; experiment: p21 induction by Western blot in MDA-MB-231 cells; format: cell-based, human; details: MDA-MB-231, 16 h
[21] = biological target: HDAC3 (Homo sapiens, UniProt O15379+P40337); experiment: HDAC3 degradation by Western blot in MDA-MB-231 cells; format: cell-based
[22] = biological target: T1, HDAC8; experiment: HDAC activity assay; format: biochemical
[23] = pretreatment with probe, then YX968, MDA-MB-231
[24] = q-value ≤0.05 and fold-change ≥|2.0|

Chain of HDAC3 (O15379 whole entry): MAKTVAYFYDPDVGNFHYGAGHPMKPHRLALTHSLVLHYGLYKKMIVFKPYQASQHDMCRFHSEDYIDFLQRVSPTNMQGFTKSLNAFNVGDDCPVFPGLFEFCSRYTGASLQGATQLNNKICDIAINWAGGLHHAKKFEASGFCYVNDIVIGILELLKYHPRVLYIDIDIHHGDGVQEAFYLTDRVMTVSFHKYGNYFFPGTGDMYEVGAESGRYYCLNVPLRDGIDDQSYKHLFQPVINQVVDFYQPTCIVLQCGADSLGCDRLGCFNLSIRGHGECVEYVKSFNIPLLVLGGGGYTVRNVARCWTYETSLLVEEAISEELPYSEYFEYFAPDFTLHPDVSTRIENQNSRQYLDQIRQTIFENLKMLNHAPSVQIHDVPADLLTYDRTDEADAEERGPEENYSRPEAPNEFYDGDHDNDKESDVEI
Chain of HDAC3 (O75376 whole entry partner): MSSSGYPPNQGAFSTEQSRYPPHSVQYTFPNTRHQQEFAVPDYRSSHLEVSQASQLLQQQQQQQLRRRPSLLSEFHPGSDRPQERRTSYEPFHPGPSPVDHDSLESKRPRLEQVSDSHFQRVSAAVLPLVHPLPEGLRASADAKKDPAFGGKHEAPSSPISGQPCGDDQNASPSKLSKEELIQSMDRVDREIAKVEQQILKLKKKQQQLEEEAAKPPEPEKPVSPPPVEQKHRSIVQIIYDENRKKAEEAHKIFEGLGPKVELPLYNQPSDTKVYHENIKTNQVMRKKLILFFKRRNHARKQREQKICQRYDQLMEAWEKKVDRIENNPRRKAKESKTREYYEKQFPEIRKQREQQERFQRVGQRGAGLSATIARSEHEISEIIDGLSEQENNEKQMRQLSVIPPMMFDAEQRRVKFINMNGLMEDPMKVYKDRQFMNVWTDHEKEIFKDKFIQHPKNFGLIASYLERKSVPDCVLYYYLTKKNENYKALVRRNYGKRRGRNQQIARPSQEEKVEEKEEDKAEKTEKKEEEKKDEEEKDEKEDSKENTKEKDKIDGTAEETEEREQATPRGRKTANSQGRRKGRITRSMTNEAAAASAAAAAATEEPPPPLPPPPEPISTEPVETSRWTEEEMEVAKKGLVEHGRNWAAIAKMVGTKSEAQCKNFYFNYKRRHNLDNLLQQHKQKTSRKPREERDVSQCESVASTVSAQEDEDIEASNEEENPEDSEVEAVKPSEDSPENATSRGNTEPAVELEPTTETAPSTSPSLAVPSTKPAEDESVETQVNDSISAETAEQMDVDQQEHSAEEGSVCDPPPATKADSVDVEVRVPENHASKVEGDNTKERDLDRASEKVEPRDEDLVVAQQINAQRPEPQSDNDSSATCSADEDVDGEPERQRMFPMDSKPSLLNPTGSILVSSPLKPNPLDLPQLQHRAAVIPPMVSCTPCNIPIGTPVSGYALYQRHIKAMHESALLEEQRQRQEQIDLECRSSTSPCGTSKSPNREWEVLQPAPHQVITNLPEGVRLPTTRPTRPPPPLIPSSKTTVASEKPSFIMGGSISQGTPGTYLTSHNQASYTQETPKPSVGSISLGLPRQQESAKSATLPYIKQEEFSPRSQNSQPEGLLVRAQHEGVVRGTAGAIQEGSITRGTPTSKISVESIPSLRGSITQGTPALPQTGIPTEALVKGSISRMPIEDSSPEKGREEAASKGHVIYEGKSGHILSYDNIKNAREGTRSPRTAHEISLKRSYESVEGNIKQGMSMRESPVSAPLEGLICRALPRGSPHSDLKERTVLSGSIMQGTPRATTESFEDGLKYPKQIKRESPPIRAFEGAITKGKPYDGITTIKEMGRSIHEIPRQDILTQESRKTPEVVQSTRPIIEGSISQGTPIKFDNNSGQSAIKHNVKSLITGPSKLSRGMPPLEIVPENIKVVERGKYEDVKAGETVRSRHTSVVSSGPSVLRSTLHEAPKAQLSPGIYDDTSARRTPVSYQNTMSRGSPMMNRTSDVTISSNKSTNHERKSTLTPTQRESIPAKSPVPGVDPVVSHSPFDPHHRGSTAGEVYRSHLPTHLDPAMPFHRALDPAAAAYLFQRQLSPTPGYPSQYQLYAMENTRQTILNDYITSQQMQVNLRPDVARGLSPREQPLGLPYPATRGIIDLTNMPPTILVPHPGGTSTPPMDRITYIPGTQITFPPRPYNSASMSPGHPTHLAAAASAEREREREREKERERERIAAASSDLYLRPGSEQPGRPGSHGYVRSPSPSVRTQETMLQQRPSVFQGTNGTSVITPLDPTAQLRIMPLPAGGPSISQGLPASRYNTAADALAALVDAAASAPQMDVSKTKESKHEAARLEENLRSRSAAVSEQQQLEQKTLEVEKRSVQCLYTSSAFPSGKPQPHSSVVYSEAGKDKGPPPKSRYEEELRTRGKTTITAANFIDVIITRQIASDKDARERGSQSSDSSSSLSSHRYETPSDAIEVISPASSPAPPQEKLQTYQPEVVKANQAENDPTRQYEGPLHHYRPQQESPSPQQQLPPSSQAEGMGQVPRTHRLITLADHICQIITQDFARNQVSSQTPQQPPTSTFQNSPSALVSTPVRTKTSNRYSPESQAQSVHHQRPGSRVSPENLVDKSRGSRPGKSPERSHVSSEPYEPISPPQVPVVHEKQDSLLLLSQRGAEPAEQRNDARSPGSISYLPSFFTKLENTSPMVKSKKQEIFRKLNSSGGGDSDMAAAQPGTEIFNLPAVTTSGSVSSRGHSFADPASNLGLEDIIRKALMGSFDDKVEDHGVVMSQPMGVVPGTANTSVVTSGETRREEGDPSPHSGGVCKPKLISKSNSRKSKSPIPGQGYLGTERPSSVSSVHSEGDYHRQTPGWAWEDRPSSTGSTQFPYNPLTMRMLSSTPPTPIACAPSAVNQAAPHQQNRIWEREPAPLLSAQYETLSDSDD
Chain of HDAC3 (P40337 whole entry): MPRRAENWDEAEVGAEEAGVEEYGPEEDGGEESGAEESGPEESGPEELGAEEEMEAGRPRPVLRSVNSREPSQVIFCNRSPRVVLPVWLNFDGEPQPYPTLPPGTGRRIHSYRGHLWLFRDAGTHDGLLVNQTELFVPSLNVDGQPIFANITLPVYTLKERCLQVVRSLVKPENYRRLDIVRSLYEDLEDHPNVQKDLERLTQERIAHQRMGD
Chain of HDAC3 (Q15370 whole entry partner): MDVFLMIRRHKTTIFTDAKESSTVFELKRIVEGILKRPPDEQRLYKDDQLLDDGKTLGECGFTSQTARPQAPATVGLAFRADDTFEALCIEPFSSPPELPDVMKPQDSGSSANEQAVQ
Chain of HDAC3 (Q15369 whole entry partner): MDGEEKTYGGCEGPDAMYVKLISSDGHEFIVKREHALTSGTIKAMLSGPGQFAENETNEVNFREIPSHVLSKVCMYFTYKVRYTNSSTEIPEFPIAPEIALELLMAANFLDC
T2 sequence (Q13547 whole entry): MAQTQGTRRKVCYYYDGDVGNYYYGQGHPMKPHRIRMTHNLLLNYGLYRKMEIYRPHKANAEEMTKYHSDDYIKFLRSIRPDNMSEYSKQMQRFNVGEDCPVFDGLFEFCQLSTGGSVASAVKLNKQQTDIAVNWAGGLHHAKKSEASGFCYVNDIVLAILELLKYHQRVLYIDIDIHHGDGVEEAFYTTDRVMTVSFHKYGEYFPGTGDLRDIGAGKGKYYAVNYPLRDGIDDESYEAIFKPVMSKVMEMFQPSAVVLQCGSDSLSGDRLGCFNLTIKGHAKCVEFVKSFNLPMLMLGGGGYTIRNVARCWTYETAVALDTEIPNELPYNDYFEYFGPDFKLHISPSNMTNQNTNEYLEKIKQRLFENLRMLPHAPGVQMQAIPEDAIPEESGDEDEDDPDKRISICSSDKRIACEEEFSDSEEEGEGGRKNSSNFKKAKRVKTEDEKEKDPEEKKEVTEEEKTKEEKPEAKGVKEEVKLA
Chain of HDAC2 (Q92769 whole entry): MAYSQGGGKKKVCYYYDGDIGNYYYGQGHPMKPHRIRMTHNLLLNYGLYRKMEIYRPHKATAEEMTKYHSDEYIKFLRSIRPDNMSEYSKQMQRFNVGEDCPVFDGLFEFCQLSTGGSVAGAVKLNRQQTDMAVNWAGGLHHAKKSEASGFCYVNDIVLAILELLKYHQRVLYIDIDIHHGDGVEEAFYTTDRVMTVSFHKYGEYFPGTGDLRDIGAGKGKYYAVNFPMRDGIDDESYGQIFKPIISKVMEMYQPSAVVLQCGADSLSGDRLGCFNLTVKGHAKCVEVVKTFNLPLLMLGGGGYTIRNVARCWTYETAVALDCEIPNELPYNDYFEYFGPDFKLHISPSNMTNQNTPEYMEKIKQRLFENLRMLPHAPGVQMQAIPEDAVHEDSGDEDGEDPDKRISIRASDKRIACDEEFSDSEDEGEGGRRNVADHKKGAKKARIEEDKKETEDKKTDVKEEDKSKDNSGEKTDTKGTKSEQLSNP
Chain of HDAC1 and the VHL complex (Q13547 whole entry, one chain of several): as the sequence (Q13547 whole entry) above

Nc1cc(F)ccc1NC(=O)/C=C/c1cnn(C/C=C/c2ccccc2)c1 [RGFP-966]
potency to suppress cell growth vs YX968 [1]: less potent than YX968

CCCNNC(=O)c1ccc(CN2CCN(C(C)=O)CC2)cc1 [compound 16, 4-((4-acetylpiperazin-1-yl)methyl)-N′-propylbenzohydrazide]
HDAC1/3/8 inhibitory potency and selectivity [2]: dramatic decline of selectivity and potency

CC(=O)N[C@H](C(=O)N1C[C@H](O)C[C@H]1C(=O)NCc1ccc(-c2scnc2C)cc1)C(C)(C)C [VH032]
effect of pretreatment on YX968-mediated HDAC8 degradation [3, 23]: effectively competed

CCCNNC(=O)c1ccc(N2CCN(CCCCCCCC(=O)N[C@H](C(=O)N3C[C@H](O)C[C@H]3C(=O)N[C@@H](C)c3ccc(-c4scnc4C)cc3)C(C)(C)C)CC2)cc1 [YX968, (2S,4R)-1-((S)-3,3-dimethyl-2-(8-(4-(4-(2-propylhydrazine-1-carbonyl)phenyl)piperazin-1-yl)octanamido)butanoyl)-4-hydroxy-N-((S)-1-(4-(4-methylthiazol-5-yl)phenyl)ethyl)pyrrolidine-2-carboxamide]
IC50 [4]: 591 nM
effect on HDAC1 protein level [5]: did not affect; also recorded: not degraded
effect on HDAC2 protein level [6]: did not affect; also recorded: not degraded
ternary complex formation with HDAC1 [7]: not able to induce a complex
number of downregulated genes ([8]; 50 nM): 41
number of upregulated genes ([8]; 50 nM): 53
significant DEGs [8, 24]: no significant DEGs
levels of acetylated core histones ([9]; MCF-7 and MDA-MB-231 cells): dose-dependently increased
concentration at which H3K27ac was weakly detectable ([9]; MDA-MB-231, 16 h): 63 nM
levels of acetylated SMC3 [10]: increased
effect on cell cycle ([11]; 0.1 μM): negligibly perturbed; also recorded: did not alter cell cycle
effect on cell cycle ([11]; 1 μM): strong G1 arrest; also recorded: markedly induced G1 arrest
concentration at which clonogenic growth was effectively inhibited [12]: 125 nM
concentration at which clonogenic growth was effectively inhibited [13]: 125 nM
concentration at which clonogenic growth was effectively inhibited [14]: 125 nM
concentration at which clonogenic growth was effectively inhibited [15]: 125 nM
concentration at which clonogenic growth was effectively inhibited [16]: 125 nM
clonogenic growth suppression ([17]; MDA-MB-231): effectively suppressed at a sub-μM concentration
clonogenic growth sensitivity [18]: quite resistant
CASP3 cleavage (activation) [19]: in a dose-dependent manner
concentration at which weak CASP3 activation was notable [19]: 63 nM
concentration at which weak p21 induction was seen [20]: 250 nM

Cc1cc2c(C(N)=O)cccc2n1-c1nc2c(c(NCc3ccccc3)n1)COCC2 [CB-5803]
effect of pretreatment on YX968-mediated HDAC3 degradation [21]: only slightly rescued
effect of pretreatment on YX968-mediated HDAC8 degradation [3]: effectively blocked

CCCCNNC(=O)c1ccc(Br)cc1 [UF010]
number of downregulated genes ([8]; UF010 treatment): 761
number of upregulated genes ([8]; UF010 treatment): 2,678
number of downregulated DEGs [8, 24]: 572
number of upregulated DEGs [8, 24]: 1,792

CCCNNC(=O)c1ccc(N2CCN(C)CC2)cc1 [compound 15, 4-(4-methylpiperazin-1-yl)-N′-propylbenzohydrazide]
HDAC1/3/8 inhibitory potency and selectivity [2]: highest potency among all the new analogues

NS(=O)(=O)OC[C@@H]1C[C@@H](n2ccc3c(N[C@H]4CCc5ccccc54)ncnc32)C[C@@H]1O [MLN4924]
effect of pretreatment on YX968-mediated HDAC3 degradation [21, 23]: highly effective in blocking
effect of pretreatment on YX968-mediated HDAC8 degradation [3, 23]: highly effective in blocking

CC[C@H](NC(=O)[C@H](C)NC)C(=O)N1C[C@@H](O)C[C@H]1Cc1c(-c2[nH]c3cc(F)ccc3c2C[C@@H]2C[C@H](O)CN2C(=O)[C@H](CC)NC(=O)[C@H](C)NC)[nH]c2cc(F)ccc12 [birinapant, reference compound]
CASP3 cleavage (activation) [19]: activated CASP3

COc1ccc(Cn2ccc3ccc(C(=O)NO)cc32)cc1 [PCI 34051]
potency to suppress cell growth vs YX968 [1]: less potent than YX968

CC(C)C[C@H](NC(=O)[C@H](Cc1ccccc1)NC(=O)c1cnccn1)B(O)O [bortezomib]
effect of pretreatment on YX968-mediated HDAC3 degradation [21, 23]: could also reverse

CCCNNC(=O)c1ccc(-c2ccc(NC(=O)CCCCCCC(=O)N[C@H](C(=O)N3C[C@H](O)C[C@H]3C(=O)N[C@@H](C)c3ccc(-c4scnc4C)cc3)C(C)(C)C)cc2)cc1 [XZ9002, reference compound]
IC50 [22]: 1090 nM
inhibition of clonogenic growth ([17]; MDA-MB-231, 3 μM): moderate inhibition

CC(C)C[C@@H](C=O)NC(=O)[C@H](CC(C)C)NC(=O)[C@H](CC(C)C)NC(=O)OCc1ccccc1 [MG132] (Cbz-Leu-Leu-Leu-aldehyde)
effect of pretreatment on YX968-mediated HDAC3 degradation [21, 23]: blocked
effect of pretreatment on YX968-mediated HDAC3 degradation ([21]; probe at 3 μM): only moderately reversed
effect of pretreatment on YX968-mediated HDAC3 degradation ([21]; probe at 10 μM): more effectively rescued
effect of pretreatment on YX968-mediated HDAC8 degradation [3, 23]: blocked
effect of pretreatment on YX968-mediated HDAC8 degradation ([3]; probe at 3 μM): effectively blocked

CCCNNC(=O)c1ccc(N2CCN(C(C)=O)CC2)cc1 [compound 14, 4-(4-acetylpiperazin-1-yl)-N′-propylbenzohydrazide]
fold less potent than 15 for the three HDAC isozymes ([2]; HDAC1, HDAC3, HDAC8): 3- to 7 fold
HDAC1/3/8 inhibitory potency and selectivity [2]: preferentially inhibited HDAC3
